From patent US20090031435A1, “SMA Therapy and Cell Based Assay” (priority 2002, published 2009)

Columns and labels:
[1] = system: SMN2-luciferase reporter construct; assay: SMN2-luciferase splicing reporter luminescence assay in NSC34 cells; type: cell-based, mouse
Text: For example, when luciferase is used as the reporter gene in an SMN splicing assay, synthesis of full-length protein can be monitored by luminescence; positive drug candidates will elicit an increase in the amount of luminescence produced from an SMN2-luciferase cassette, which is normally inefficiently spliced, but will not affect the level of luminescence in cells expressing the SMN1-luciferase reporter (because SMN1 transcripts are normally spliced to include exon 7 about 100% of the time). ELISA, Western blotting or gem counts (obtained using indirect immunofluorescence microscopy) can be used to verify the increase in SMN2-luciferase protein levels, and analysis by RNAase protection, Northern blot or RT-PCR, such as quantitative or semiquantitative, can be used to determine whether the effect of the compound is at the level of splicing or mRNA stability. Identification of a role for indoprofen or analogs of this compound in SMN splicing in vitro can be achieved through the generation of stable cell lines expressing the SMN-reporter gene (e.g., SMN-luciferase) splicing cassette. For example, the embryonic mouse spinal cord cell line NSC34 and the human cervical carcinoma cell line C33A can be used for the methods of the invention. […]

SMN1-luciferase control = SMN1-luciferase control splicing reporter luminescence assay in C33A cells; type: cell-based, human
Procedure: (§1) In a screen to identify compounds capable of enhancing the inclusion of exon 7 in SMN2 mRNA, cells of the human cervical carcinoma cell line C33A (ATCC#HTB-31) were stably transformed with an SMN fragment/luciferase reporter gene construct that incorporated exons 6-8 of SMN1 or SMN2 for use in a high-throughput screening assay. These cells were cultured in Dulbecco's Modified Eagle's Medium (DMEM) with 10% Fetal Bovine Serum (Sigma F 2442), 50 units/mL penicillin 50 μg/mL streptomycin sulfate and 400 mg/L G418 (i.e. Geneticin, Gibco, cat. No. 11811-031). The assay medium used to perform the luciferase assay was identical to the growth medium except the G418 selection agent was omitted. To perform the luciferase assay, a single reagent (25 mM glycylglycine, 15 mM magnesium sulfate, 4 mM EGTA, adjusted to pH 7.85, to which is added 10 μM D-luciferin (Sigma L9504), 10 mM dithiothreitol (DTT, Roche Molecular Biochemicals 100034), 2 mM adenosine 5′-triphosphate (ATP, Sigma A7699), 50 μM CoenzymeA, sodium salt (Sigma C 3144) and 1.5% Triton X-100) was used to lyse the cells and to initiate the luciferase reaction.
(§2) Using this cell-based luminescence assay, a screen was performed to identify compounds that modulate SMN splicing. Stably transfected C33A cells (˜35-40 M cells/flask) were cultured, then removed from T-175 culture flasks with 3 mL trypsin, and quenched with 7 mL assay medium. The cells were spun down and re-suspended in assay medium to a concentration of ˜200,000 cells/mL. Cells were immediately seeded in 384-well assay plates (Nalge Nunc white plates, #164610) 57 μL/well for a cell density of 11,000 cells/well. Compounds from a library obtained from the National Institute of Neurological Disorders and Stroke (NINDS) were added to the cells to a final concentration of 10 μM (diluted with assay medium by 1000× from the 10 mM stock solution in DMSO). The cells were incubated with the test compounds at 37° C. for ˜48 hr. A Zymark Sciclone ALH was used for cell seeding and compound addition. After incubation, the assay plates were cooled to room temperature for ˜10-60 minutes. The medium and compounds were aspirated from the wells, followed by 6 rinse/aspirate cycles with a PBS solution. 53 μL of the luciferase assay reagent was added and the plate was immediately transferred to a luminescence plate reader. The plate was shaken for 30 minutes prior to reading. The plate processing steps were performed on an integrated Packard Minitrak/Sidetrak platereader.
(§3) To analyze the data, the dark count background was first subtracted from all luminescence readings. The signal from each compound treated well was divided by the average of 48 control wells on the same 384-well plate. Each compound library plate was tested in triplicate with each of the two cell lines, and the entire assay was repeated on two separate occasions, yielding six readings for each compound for each cell line. The highest and lowest of the six normalized readings were dropped and the remaining four readings averaged. These average values of compound-treated luminescence versus control luminescence are denoted “Xnorm(y)”, where X indicates the cell line, SMN1-luciferase or SMN2-luciferase, and y represents the compound. The difference of [SMN2norm(y)−SMN1norm(y)] measures the selective change in SMN2-luciferase expression versus change in SMN1 luciferase production upon treatment with compound y. This is the final score that is output.
(§4) These dilutions were created with a Zymark Sciclone ALH Z-8. Once created, the assay was performed as described for the screening process. Concentrations required to achieve 50% of the maximally achievable effect for each compound (“EC50”) were calculated using Xlfit (IDBS).

[2] = system: SMN2-luciferase reporter construct; assay: SMN2-luciferase splicing reporter luminescence assay in C33A cells; type: cell-based, human
Procedure: as §1, §2, §3, §4

CC(Cc1ccccc1)C(=O)O (stereo not drawn) [Alpha-methylhydrocinnamic acid]
Effect on splicing of SMN2-luciferase in NSC34 cells [1]: (no effect in NSC34 | Effect on splicing of SMN1-luciferase control in C33A cells (SMN1-luciferase control): Decreased | Effect on splicing of SMN2-luciferase in C33A cells [2]: Decreased
